Measured values from US9650403B2, “Platinum (II) compound, preparation method therefor, and pharmaceutical composition and application thereof” (SHANGHAI INSTITUTE OF PHARMACEUTICAL INDUSTRY, priority 2013, dated 2017).

Assays:
transplanted S180 tumor = test: anti-tumor rate in ICR mice with transplanted S180 tumor; format: in vivo
Procedure: The model of ICR mice with transplanted 5180 sarcoma in vivo was used to determine the anticancer effect of the compound. Specific steps are as follows:
Samples: cis-3-hydroxy-acrylic acid diammine platinum (II), serial number: SIPI-601.
Positive control: Oxaliplatin for injection, Jiangsu Hengrui Medicine Co., Ltd, lot number: 13082811, 50 mg per bottle.
Samples: SIPI-601, which was dissolved by a 10% glucose injection.
Positive control: Oxaliplatin for injection, which was dissolved by a 10% glucose injection.
(§1) 32 ICR mice, male, weight 18-20 g, were supplied by Sippr/Bk Laboratory Animals Ltd, certification: SCXK (shanghai) 2008-2016.
Tumor cell trains: two ICR mice with S180 ascites tumor, passage cultured by pharmacological office, Shanghai State Institute of Pharmaceutical Industry (SIPI).
(§2) The ascites of two vigorous growing ICR mice with S180 ascites tumor was extracted under a sterile condition, diluted 6 times with saline water, axilla subcutaneously inoculated with a dosage of 0.2 ml per mouse. The mice were randomly divided into four groups the next day, 8 for each group.
(§3) The groups were blank control group, SIPI-601 60 mg/kg iv group (administered once every three days), SIPI-601 120 mg/kg iv group (administered once every six days), Oxaliplatin 9 mg/kg iv group (administered once every other day).
(§4) The mice were administered the second day after inoculation. After the treatment, the survived animals were euthanatized, the tumors were taken and weighed to calculate anti-tumor rate.

[1] = body weight of ICR mice with transplanted S180 tumor; format: in vivo
Procedure: as §1, §2, §3, §4

[2] = water-solubility at room temperature
[3] = system: human poorly differentiated gastric cancer cell stain BGC-823; test: MTT cytotoxicity on human tumor cell strains in vitro; format: cell-based; settings: BGC-823, MTT, 48 hours
Procedure: (§5) MTT method was employed to test the cytotoxic effect caused by the compound on human tumor cell stains in vitro. Specific steps are as follows:
(§6) The tumor cells (human poorly differentiated gastric cancer cell stain BGC-823, human breast cancer cell strain Bcap37, human oral cancer cell strain KB) was cultured in a 10% calf serum, inoculated into a 96-well plate (2×10^5 cells per well) at 37° C. in an incubator with 5% CO2. The cis-3-hydroxy-acrylic acid diammine platinum (II) was dissolved in DMSO to obtain a solution with a concentration of 10 mg/ml. The solution was diluted to the required concentration with a phosphate buffer, and then added into the wells of the 96-well plate respectively, each concentration was for two wells, 10 μl per well, therefore, each concentration has two parallel tests. DMSO was diluted accordingly in a gradient manner and added into the wells of the 96-well plate as controls.
(§7) After the 96-well plate was kept at 37° C. in the incubator with 5% CO2 for 48 hours, 20 μl 5 mg/ml MTT solution was added into per well. Then the 96-well plate were further kept for 3-4 hours in the incubator at the same temperature. 100 μl solvent was added into per well and the 96-well plate was kept warm in the incubator overnight to make the generated formazan crystals dissolve sufficiently. The light absorption value at 492 nm was determined.
(§8) A relative survival rate of cells was calculated according to the light absorption value after the treatment of the compound. The calculation formula is as follows: […]
(§9) The IC50 of the compound against each kind of tumor cells was calculated though software.

[4] = system: human oral cancer cell strain KB; test: as above; format: cell-based; settings: 48 hours
Procedure: as §5, §6, §7, §8, §9

[5] = system: human breast cancer cell strain Bcap37; test: as above; format: cell-based; settings: 48 hours
Procedure: as §5, §6, §7, §8, §9

[6] = 9 mg/kg iv, once every other day
[7] = 60 mg/kg iv, once every three days
[8] = 120 mg/kg iv, once every six days

| Compound | The anti-tumor rate (transplanted S180 tumor; [6]) | The final body weight after the removal of tumor [1, 6] | water-solubility [2] | The anti-tumor rate (transplanted S180 tumor; [7]) | The anti-tumor rate (transplanted S180 tumor; [8]) | The final body weight after the removal of tumor [1, 7] | The final body weight after the removal of tumor [1, 8] | IC50 [3] | IC50 [4] | IC50 [5] |
| --- | --- | --- | --- | --- | --- | --- | --- | --- | --- | --- |
| O=C1[O][Pt]2([NH][C@@H]3CCCC[C@H]3[NH]2)[O]C1=O [Oxaliplatin, reference compound] | 62.42% | 19.92 g |  |  |  |  |  |  |  |  |
| cis-3-hydroxy-acrylic acid diammine platinum (II) [SIPI-601] |  |  | greater than 25 mg/mL | 64.39% | 66.83% | 22.46 g | 20.34 g | 2.28 µg/mL | 33.94 µg/mL | 21.58 µg/mL |
